Data reported in patent publication US10662164B2, “Non-beta lactam antibiotics” (University of Notre Dame du Lac, priority 2014, dated 2020).

How the values were obtained:
Full PK study [1] = format: in vivo, mouse; conditions: compound 1, oral; dose not given
E. faecium NCTC 7171 = test: Minimal-bactericidal concentration (MBC) determination; format: cell-based, Enterococcus faecium
Method: (§1) The MBC of compound 75b was determined using S. aureus ATCC 29213, S. aureus […], and E. faecium NCTC 7171.
(§2) The MBC of indolyl antibiotic 75b was determined by incubation of 1.5×10^5 cells of S. aureus ATCC29213, S. aureus ATCC 27660, and E. faecium NCTC7171 at MIC, 2×MIC, and 4×MIC. Aliquots of 10 μL (corresponding to 1.5×10^4 cells) were plated on agar plates, incubated for 48 h, and colonies were counted in the presence and absence of […].

S. aureus ATCC 29213 = test: as above; format: cell-based, Staphylococcus aureus; conditions: MSSA strain
Method: as §1, §2

S. aureus ATCC 277660 = test: as above; format: cell-based, Staphylococcus aureus
Method: as §1, §2

Full PK study [2] = format: in vivo, mouse
Method: A full PK study was conducted with indole 75b after iv and oral (po) administration. This compound had the lowest in vitro toxicity and the highest efficacy in the mouse peritonitis infection model.
Female ICR mice (6-8 weeks old, ˜20-g body weight) were used for the PK and peritonitis studies. Animals were purchased from Harlan Laboratories, Inc. (Indianapolis, Ind., USA) and given Teklad 2019 Extruded Rodent Diet and water ad libitum. Mice were maintained in polycarbonate shoebox cages with ¼″ corncob (The Andersons Inc., Maumee, Ohio) and Alpha-dri (Sheperd Specialty Papers, Inc., Richland, Mich.) bedding under 12-h light/12-h dark cycle at 72±2° F.
Antibiotic 75b was dissolved in 10% DMSO/25% Tween-80/65% water at a concentration of 5 mg/mL. Mice (n=3 per time point per route of administration) were administered 100 μL of 75b (equivalent to 20 mg/kg) iv. A separate group of mice was given 100 μL of 75b (equivalent to 20 mg/kg) orally (po). Terminal blood was collected in heparin by cardiac puncture at 2, 5, 10, 20, and 40 min, and at 1, 2, 3, 4, 8, and 24 h after iv administration and at 0.5, 1, 2, 3, 4, 6, 9, 24, and 36 h after po administration. Blood was centrifuged at 1200 g for 10 min to obtain plasma. Plasma samples were stored at −80° C. until analysis.
Plasma ([…], aliquot) was mixed with 100 μL of acetonitrile containing internal standard (final concentration 8 μg/mL). After centrifugation at 10000 g for 10 min, the supernatant was analyzed by ultraperformance liquid chromatography (UPLC) with UV detection at 285 nm. A Waters Acquity UPLC System (Waters Corporation, Milford, Mass., USA), consisting of a binary pump, an autosampler, a column heater, and a photodiode array detector was used. An Acquity UPLC C18 1.7 μm, 2.1 mm i.d.×50 mm column was used. Elution was at 0.5 mL/min with 70% A/30% B for 2 min, followed by a 10-min linear gradient to 10% A/90% B, then 70% A/30% B for 2 min, where A=0.1% formic acid/water and B=0.1% formic acid/acetonitrile. Monitoring was by UV detection at 285 nm. Calibration curves for each compound were prepared in control plasma containing internal standard. The concentrations in the PK samples were obtained using peak area ratio to the internal standard and the calibration curve regression analysis parameters. The methods were linear from 0.01 to 100 μg/mL; coefficients of determination R^2 range from 0.98 to 0.99.
The area under the curve (AUC), clearance (CL), volume of distribution (Vd), and terminal half-life were calculated using Phoenix WinNonlin 6.3 (Certara LP, St Louis, Mo., USA) noncompartmental analysis using uniform weighing. Half-lives were estimated from the linear portion of the initial or terminal phase of the concentration-time data by linear regression, where the slope of the line was the rate constant k and t1/2=ln 2/k.

Structure (SMILES)	t1/2abs (Full PK study [1]) [h]	MBC, fold above the MIC (E. faecium NCTC 7171) [fold]	MBC relative to MIC (S. aureus ATCC 29213)	MBC, fold above the MIC (S. aureus ATCC 277660) [fold]	AUC0-24 h (Full PK study [2]; 20 mg/kg iv, mice) [µg·min/mL]	AUC0-∞ (Full PK study [2]; 20 mg/kg iv, mice) [µg·min/mL]	CL (Full PK study [2]; 20 mg/kg iv, mice) [mL/min/kg]	Vd (Full PK study [2]; 20 mg/kg iv, mice) [L/kg]	t1/2α (Full PK study [2]; 20 mg/kg iv, mice)	t1/2β (terminal half-life) (Full PK study [2]; 20 mg/kg iv, mice) [h]	F (oral bioavailability) (Full PK study [2]; 20 mg/kg po vs iv, mice) [%]	AUC0-24 h (Full PK study [2]; 20 mg/kg po, mice) [µg·min/mL]	AUC0-∞ (Full PK study [2]; 20 mg/kg po, mice) [µg·min/mL]	Cmax (Full PK study [2]; 20 mg/kg po, mice) [ng/mL]	Tmax (Full PK study [2]; 20 mg/kg po, mice) [h]	t1/2dist (Full PK study [2]; 20 mg/kg po, mice)	t1/2elim (terminal half-life) (Full PK study [2]; 20 mg/kg po, mice) [h]	clearance, fold lower than 1 (Full PK study [2]; 75b vs compound 1) [fold]	volume of distribution, fold higher than 1 (Full PK study [2]; 75b vs compound 1) [fold]
Oc1ccc(-c2nc(-c3ccc(Oc4ccc(C(F)(F)F)cc4)cc3)no2)cc1 [Compound 1]	3.3	–	–	–	–	–	–	–	–	–	–	–	–	–	–	–	–	–	–
FC(F)(F)c1ccc(Oc2ccc(-c3noc(-c4ccc5[nH]ccc5c4)n3)cc2)cc1 [Compound 75b, 5-(1H-Indol-5-yl)-3-(4-(4-(trifluoromethyl)phenoxy)phenyl)-1,2,4-oxadiazole]	–	2	the same as the MIC value	2	3140	3520	5.68	4.73	t1/2α = 0.54 min	9.6	97	3060	4060	2340	6	t1/2dist = 15.9 h	18.6	3	13
